Measurements from PubChem BioAssay (NCI).
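Where inhibition never reached the appropriate level, the endpoint shown equals the highest concentration tested. Otherwise, values were interpolated linearly from a five-concentration, 48-hour dose response in 96-well plates. TGI marks complete inhibition of growth.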

Key:
Assay in all cases: NCI anticancer screen, dose series, 48 h
[1] = system: 786-0 renal
[2] = system: A498 renal
[3] = system: A549 NSCLC
[4] = system: ACHN renal
[5] = system: BT-549 breast
[6] = system: CAKI-1 renal
[7] = system: CCRF-CEM leukemia
[8] = system: COLO 205 colon
[9] = system: DU-145 prostate
[10] = system: EKVX NSCLC
[11] = system: HCC-2998 colon
[12] = system: HCT-116 colon
[13] = system: HCT-15 colon
[14] = system: HL-60(TB) leukemia
[15] = system: HOP-62 NSCLC
[16] = system: HOP-92 NSCLC
[17] = system: HT29 colon
[18] = system: IGROV1 ovarian
[19] = system: K-562 leukemia
[20] = system: KM12 colon
[21] = system: LOX IMVI melanoma
[22] = system: M14 melanoma
[23] = system: MALME-3M melanoma
[24] = system: MCF7 breast
[25] = system: MDA-MB-231 breast
[26] = system: MDA-MB-435
[27] = system: MDA-N
[28] = system: MOLT-4 leukemia
[29] = system: NCI-H226 lung
[30] = system: NCI-H23 lung
[31] = system: NCI-H460 lung
[32] = system: NCI-H522 lung
[33] = system: NCI/ADR-RES ovarian
[34] = system: OVCAR-3 ovarian
[35] = system: OVCAR-4 ovarian
[36] = system: OVCAR-5 ovarian
[37] = system: OVCAR-8 ovarian
[38] = system: PC-3 prostate
[39] = system: RPMI-8226 leukemia
[40] = system: RXF 393 renal
[41] = system: SF-268 CNS
[42] = system: SF-295 CNS
[43] = system: SF-539 CNS
[44] = system: SK-MEL-2 melanoma
[45] = system: SK-MEL-28 melanoma
[46] = system: SK-OV-3 ovarian
[47] = system: SN12C renal
[48] = system: SNB-19 CNS
[49] = system: SNB-75 CNS
[50] = system: SR leukemia
[51] = system: SW-620 colon
[52] = system: T-47D breast
[53] = system: TK-10 renal
[54] = system: U251 CNS
[55] = system: UACC-257 melanoma
[56] = system: UACC-62 melanoma
[57] = system: SK-MEL-5 melanoma
[58] = system: HS 578T breast
[59] = system: UO-31 renal

For `OC1c2[nH]c3ccccc3c2CCN2CCCCC12` (stereo not drawn), the TGI [1] was over 100 µM, the TGI [2] was over 100 µM and the TGI [3] was over 100 µM. The TGI [4] was over 100 µM, the TGI [5] was over 100 µM and the TGI [6] was over 100 µM. For the same compound, the TGI [7] was over 100 µM, the TGI [8] was over 100 µM and the TGI [9] was over 100 µM. It also gave a TGI [10] of over 100 µM, a TGI [11] of over 100 µM and a TGI [12] of over 100 µM. The TGI [13] was over 100 µM, the TGI [14] was over 100 µM and the TGI [15] was over 100 µM. The TGI [16] was over 100 µM, the TGI [17] was over 100 µM and the TGI [18] was over 100 µM. It also gave a TGI [19] of over 100 µM, a TGI [20] of over 100 µM and a TGI [21] of over 100 µM. The TGI [22] was over 100 µM, the TGI [23] was over 100 µM and the TGI [24] was over 100 µM. It also gave a TGI [25] of over 100 µM, a TGI [26] of over 100 µM and a TGI [27] of over 100 µM. It also gave a TGI [28] of over 100 µM, a TGI [29] of over 100 µM and a TGI [30] of over 100 µM. For the same compound, the TGI [31] was over 100 µM, the TGI [32] was over 100 µM and the TGI [33] was over 100 µM. The TGI [34] was over 100 µM, the TGI [35] was over 100 µM and the TGI [36] was over 100 µM. For the same compound, the TGI [37] was over 100 µM, the TGI [38] was over 100 µM and the TGI [39] was over 100 µM. For the same compound, the TGI [40] was over 100 µM, the TGI [41] was over 100 µM and the TGI [42] was over 100 µM. The TGI [43] was over 100 µM, the TGI [44] was over 100 µM and the TGI [45] was over 100 µM. The TGI [46] was over 100 µM, the TGI [47] was over 100 µM and the TGI [48] was over 100 µM. The TGI [49] was over 100 µM, the TGI [50] was over 100 µM and the TGI [51] was over 100 µM. It also gave a TGI [52] of over 100 µM, a TGI [53] of over 100 µM and a TGI [54] of over 100 µM. The TGI [55] was over 100 µM and the TGI [56] was over 100 µM.
Compound `Fc1cccc(F)c1C1SCc2nc3cc4ccccc4cc3n21` (stereo not drawn) has a TGI [1] of over 100 µM, a TGI [2] of 67.3 µM and a TGI [3] of over 100 µM. The TGI [5] was over 100 µM, the TGI [6] was over 100 µM and the TGI [7] was 62.4 µM. For the same compound, the TGI [8] was over 100 µM, the TGI [9] was over 100 µM and the TGI [10] was over 100 µM. It also gave a TGI [11] of 54.1 µM, a TGI [12] of over 100 µM and a TGI [13] of 55 µM. For the same compound, the TGI [15] was over 100 µM, the TGI [16] was 69.2 µM and the TGI [17] was 80.3 µM. For the same compound, the TGI [18] was 72.9 µM, the TGI [19] was 48.6 µM and the TGI [20] was over 100 µM. The TGI [21] was over 100 µM, the TGI [22] was over 100 µM and the TGI [23] was over 100 µM. For the same compound, the TGI [24] was over 100 µM, the TGI [25] was over 100 µM and the TGI [26] was over 100 µM. The TGI [27] was over 100 µM, the TGI [28] was 81.5 µM and the TGI [29] was over 100 µM. It also gave a TGI [30] of over 100 µM, a TGI [33] of over 100 µM and a TGI [34] of 36.6 µM. It also gave a TGI [35] of 36.7 µM, a TGI [36] of over 100 µM and a TGI [37] of over 100 µM. It also gave a TGI [38] of over 100 µM, a TGI [39] of 73.7 µM and a TGI [40] of over 100 µM. The TGI [41] was over 100 µM, the TGI [42] was over 100 µM and the TGI [43] was 45.1 µM. For the same compound, the TGI [44] was over 100 µM, the TGI [45] was over 100 µM and the TGI [57] was over 100 µM. For the same compound, the TGI [46] was over 100 µM, the TGI [47] was over 100 µM and the TGI [49] was 72.3 µM. It also gave a TGI [50] of over 100 µM, a TGI [51] of over 100 µM and a TGI [52] of over 100 µM. For the same compound, the TGI [53] was over 100 µM, the TGI [54] was over 100 µM and the TGI [55] was over 100 µM. For the same compound, the TGI [56] was over 100 µM.
Compound `CCOC(=O)C1(C)CCCc2sc(N)c(C#N)c21` (stereo not drawn) has a TGI [1] of over 100 µM, a TGI [2] of over 100 µM and a TGI [3] of over 100 µM. It also gave a TGI [4] of over 100 µM, a TGI [5] of over 100 µM and a TGI [8] of over 100 µM. The TGI [10] was over 100 µM, the TGI [11] was over 100 µM and the TGI [12] was over 100 µM. It also gave a TGI [13] of over 100 µM, a TGI [14] of over 100 µM and a TGI [15] of over 100 µM. It also gave a TGI [16] of over 100 µM, a TGI [58] of over 100 µM and a TGI [17] of over 100 µM. It also gave a TGI [18] of over 100 µM, a TGI [19] of over 100 µM and a TGI [20] of over 100 µM. It also gave a TGI [22] of over 100 µM, a TGI [23] of over 100 µM and a TGI [24] of over 100 µM. The TGI [25] was over 100 µM, the TGI [27] was over 100 µM and the TGI [28] was over 100 µM. It also gave a TGI [29] of over 100 µM, a TGI [30] of over 100 µM and a TGI [31] of over 100 µM. The TGI [36] was over 100 µM, the TGI [37] was over 100 µM and the TGI [38] was over 100 µM. The TGI [39] was over 100 µM, the TGI [40] was over 100 µM and the TGI [44] was over 100 µM. It also gave a TGI [45] of over 100 µM, a TGI [57] of over 100 µM and a TGI [47] of over 100 µM. For the same compound, the TGI [48] was over 100 µM, the TGI [49] was over 100 µM and the TGI [50] was over 100 µM. For the same compound, the TGI [51] was over 100 µM, the TGI [53] was over 100 µM and the TGI [54] was over 100 µM. The TGI [55] was over 100 µM, the TGI [56] was over 100 µM and the TGI [59] was over 100 µM.
